In ChEMBL document CHEMBL1201862, “PubChem BioAssay data set” (2004):
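Step 1: Grow cells in 96-well plates. Step 2: Expose to compound for 48 hours at 5 concentrations. Step 3: Interpolate endpoints linearly; if unreached, use highest concentration. At the GI50, growth is halved.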 Active and inactive are the calls of the source. No stated cut-off is given here; in the data, active = GI50 up to about 1.1 µM and inactive = higher.

Experiments:
Experiment in all cases: NCI tumour cell line growth inhibition, 48 h
[1] = test system: 786-0
[2] = test system: A498
[3] = test system: A549
[4] = test system: ACHN
[5] = test system: BT-549
[6] = test system: CAKI-1
[7] = test system: CCRF-CEM
[8] = test system: COLO 205
[9] = test system: DU-145
[10] = test system: EKVX
[11] = test system: HCC 2998
[12] = test system: HCT-116
[13] = test system: HCT-15
[14] = test system: HL-60
[15] = test system: HOP-62
[16] = test system: HOP-92
[17] = test system: HT-29
[18] = test system: Hs-578T
[19] = test system: IGROV-1
[20] = test system: K562
[21] = test system: KM12
[22] = test system: LOX IMVI
[23] = test system: M14
[24] = test system: MCF7
[25] = test system: MDA-MB-231
[26] = test system: MDA-MB-435
[27] = test system: MDA-N
[28] = test system: MOLT-4
[29] = test system: NCI-H226
[30] = test system: NCI-H23
[31] = test system: NCI-H460
[32] = test system: NCI/ADR-RES
[33] = test system: OVCAR-3
[34] = test system: OVCAR-4
[35] = test system: OVCAR-5
[36] = test system: OVCAR-8
[37] = test system: PC-3
[38] = test system: RPMI-8226
[39] = test system: RXF 393
[40] = test system: SF-268
[41] = test system: SF-295
[42] = test system: SF-539
[43] = test system: SK-MEL-28
[44] = test system: SK-MEL-2
[45] = test system: SK-MEL-5
[46] = test system: SK-OV-3
[47] = test system: SN12C
[48] = test system: SNB-19
[49] = test system: SNB-75
[50] = test system: SR
[51] = test system: SW-620
[52] = test system: T47D
[53] = test system: TK-10
[54] = test system: U-251
[55] = test system: UACC-257
[56] = test system: UACC-62
[57] = test system: UO-31
[58] = test system: NCI-H522
[59] = test system: Malme-3M

O=C1c2cc3ccccc3cc2C2(c3ccc(Cl)cc3)NCCN12 (stereo unspecified)
GI50 [1]: 38.1 µM (inactive)
GI50 [2]: 77.3 µM (inactive)
GI50 [3]: 28.4 µM (inactive)
GI50 [4]: 33 µM (inactive)
GI50 [5]: 54 µM (inactive)
GI50 [6]: 44.7 µM (inactive)
GI50 [7]: 33 µM (inactive)
GI50 [8]: 17.6 µM (inactive)
GI50 [9]: 40.6 µM (inactive)
GI50 [10]: 26.5 µM (inactive)
GI50 [11]: 21.1 µM (inactive)
GI50 [12]: 18 µM (inactive)
GI50 [13]: 27 µM
GI50 [14]: 25.8 µM (inactive)
GI50 [15]: 32.4 µM (inactive)
GI50 [16]: 34.4 µM (inactive)
GI50 [17]: 34.8 µM (inactive)
GI50 [18]: 38.3 µM (inactive)
GI50 [19]: 27.4 µM (inactive)
GI50 [20]: 61.7 µM (inactive)
GI50 [21]: 20.7 µM (inactive)
GI50 [22]: 21.9 µM (inactive)
GI50 [23]: 26.8 µM (inactive)
GI50 [24]: 26.2 µM (inactive)
GI50 [25]: 87.7 µM (inactive)
GI50 [26]: 33 µM (inactive)
GI50 [27]: 28.2 µM (inactive)
GI50 [28]: 33.2 µM (inactive)
GI50 [29]: 34.5 µM (inactive)
GI50 [30]: 22.1 µM (inactive)
GI50 [31]: 29.6 µM (inactive)
GI50 [32]: 32.8 µM (inactive)
GI50 [33]: 23.6 µM (inactive)
GI50 [34]: 52.5 µM (inactive)
GI50 [35]: 21.5 µM (inactive)
GI50 [36]: 33.3 µM (inactive)
GI50 [37]: 31.1 µM (inactive)
GI50 [38]: 29.4 µM (inactive)
GI50 [39]: 21.8 µM (inactive)
GI50 [40]: 44.2 µM (inactive)
GI50 [41]: 25.5 µM (inactive)
GI50 [42]: 23 µM (inactive)
GI50 [43]: 39.6 µM (inactive)
GI50 [44]: 24.6 µM (inactive)
GI50 [45]: 20 µM (inactive)
GI50 [46]: 29.3 µM (inactive)
GI50 [47]: 49.5 µM (inactive)
GI50 [48]: 24.5 µM (inactive)
GI50 [49]: 27.8 µM (inactive)
GI50 [50]: 29 µM (inactive)
GI50 [51]: 50.4 µM (inactive)
GI50 [52]: 39.7 µM (inactive)
GI50 [53]: 34.8 µM (inactive)
GI50 [54]: 34.9 µM (inactive)
GI50 [55]: 31.8 µM (inactive)
GI50 [56]: 19.2 µM (inactive)
GI50 [57]: 29.9 µM (inactive)

Cn1c(-c2cccs2)cc(-c2cccs2)c1-c1ccco1
GI50 [1]: 69.2 µM (inactive)
GI50 [2]: 27.7 µM (inactive)
GI50 [3]: 50.8 µM (inactive)
GI50 [4]: > 93.3 µM (inactive)
GI50 [5]: > 100 µM (inactive)
GI50 [6]: 11.4 µM (inactive)
GI50 [7]: 28.8 µM (inactive)
GI50 [8]: 27.5 µM (inactive)
GI50 [9]: > 100 µM (inactive)
GI50 [10]: 16.6 µM (inactive)
GI50 [11]: 26.6 µM (inactive)
GI50 [12]: 27.7 µM (inactive)
GI50 [13]: 14.4 µM
GI50 [14]: 23.9 µM (inactive)
GI50 [15]: > 92 µM (inactive)
GI50 [16]: 63 µM (inactive)
GI50 [17]: > 67.6 µM (inactive)
GI50 [18]: 26.5 µM (inactive)
GI50 [19]: > 48.9 µM (inactive)
GI50 [20]: 10.2 µM (inactive)
GI50 [21]: 6.07 µM (inactive)
GI50 [22]: 22.7 µM (inactive)
GI50 [23]: 26.4 µM (inactive)
GI50 [24]: 0.473 µM (active)
GI50 [25]: 51.4 µM (inactive)
GI50 [26]: 7.16 µM (inactive)
GI50 [27]: 39.5 µM (inactive)
GI50 [28]: 1.8 µM (inactive)
GI50 [29]: > 100 µM (inactive)
GI50 [30]: 3.02 µM (inactive)
GI50 [31]: 38.7 µM (inactive)
GI50 [58]: 21.2 µM (inactive)
GI50 [32]: 40.7 µM (inactive)
GI50 [33]: 19.2 µM (inactive)
GI50 [34]: 1.7 µM (inactive)
GI50 [35]: > 100 µM (inactive)
GI50 [36]: > 100 µM (inactive)
GI50 [37]: 72.6 µM (inactive)
GI50 [38]: 31 µM (inactive)
GI50 [39]: 27.9 µM (inactive)
GI50 [40]: > 66.4 µM (inactive)
GI50 [41]: 29.4 µM (inactive)
GI50 [42]: > 100 µM (inactive)
GI50 [43]: 49.1 µM (inactive)
GI50 [44]: 30.3 µM (inactive)
GI50 [45]: 23.8 µM (inactive)
GI50 [46]: > 100 µM (inactive)
GI50 [47]: > 94.6 µM (inactive)
GI50 [48]: > 100 µM (inactive)
GI50 [49]: 31.8 µM (inactive)
GI50 [50]: 14.8 µM (inactive)
GI50 [51]: 50.5 µM (inactive)
GI50 [52]: 1.06 µM (active)
GI50 [53]: 41.7 µM (inactive)
GI50 [54]: 56.1 µM (inactive)
GI50 [55]: 39.9 µM (inactive)
GI50 [56]: 30.9 µM (inactive)
GI50 [57]: 31.5 µM (inactive)

O=C(CCl)Nc1cc(Cl)c(Cl)cc1Cl
GI50 [1]: 1.51 µM (inactive)
GI50 [2]: 5.15 µM (inactive)
GI50 [3]: 2.35 µM (inactive)
GI50 [4]: 2.22 µM (inactive)
GI50 [5]: 1.77 µM (inactive)
GI50 [6]: 2.96 µM (inactive)
GI50 [7]: 0.966 µM (active)
GI50 [8]: 1.85 µM (inactive)
GI50 [9]: 3.16 µM (inactive)
GI50 [10]: 2.54 µM (inactive)
GI50 [11]: 4.84 µM (inactive)
GI50 [12]: 1.59 µM (inactive)
GI50 [13]: 2.09 µM
GI50 [14]: 2.82 µM (inactive)
GI50 [15]: 2.15 µM (inactive)
GI50 [17]: 2 µM (inactive)
GI50 [18]: 3.4 µM (inactive)
GI50 [19]: 1.81 µM (inactive)
GI50 [20]: 3.66 µM (inactive)
GI50 [21]: 0.307 µM (active)
GI50 [22]: 1.56 µM (inactive)
GI50 [23]: 1.48 µM (inactive)
GI50 [24]: 2.07 µM (inactive)
GI50 [25]: 1.56 µM (inactive)
GI50 [26]: 1.38 µM (inactive)
GI50 [27]: 1.69 µM (inactive)
GI50 [28]: > 10 µM (inactive)
GI50 [59]: 1.41 µM (inactive)
GI50 [29]: 1.01 µM (active)
GI50 [30]: 1.7 µM (inactive)
GI50 [31]: 1.73 µM (inactive)
GI50 [58]: 0.505 µM (active)
GI50 [32]: 2.05 µM (inactive)
GI50 [33]: 1.76 µM (inactive)
GI50 [34]: 2.27 µM (inactive)
GI50 [35]: 2.12 µM (inactive)
GI50 [36]: 1.73 µM (inactive)
GI50 [37]: 1.76 µM (inactive)
GI50 [38]: 4.74 µM (inactive)
GI50 [39]: 2.65 µM (inactive)
GI50 [40]: 2.3 µM (inactive)
GI50 [41]: 5.26 µM (inactive)
GI50 [42]: 1.67 µM (inactive)
GI50 [43]: 2.32 µM (inactive)
GI50 [44]: 1.64 µM (inactive)
GI50 [45]: 1.78 µM (inactive)
GI50 [46]: > 10 µM (inactive)
GI50 [47]: 1.52 µM (inactive)
GI50 [48]: 2.27 µM (inactive)
GI50 [50]: 0.644 µM (active)
GI50 [51]: 2.58 µM (inactive)
GI50 [52]: 2.29 µM (inactive)
GI50 [53]: 1.83 µM (inactive)
GI50 [54]: 2.01 µM (inactive)
GI50 [55]: 1.84 µM (inactive)
GI50 [56]: 1.93 µM (inactive)
